Data from ChEMBL document CHEMBL3758136, “Design, synthesis and in vitro activity of phidianidine B derivatives as novel PTP1B inhibitors with specific selectivity” (Bioorg Med Chem Lett, 2016).

Experiments:
[1] = target: Receptor-type tyrosine-protein phosphatase F (Homo sapiens, UniProt P10586); assay: Inhibition of human LAR as hydrolysis of pNPP after 2 mins
[2] = target: T1, Tyrosine-protein phosphatase non-receptor type 2 (Homo sapiens, UniProt P17706); assay: Inhibition of human TCPTP as hydrolysis of pNPP after 2 mins
T1 sequence (P17706 whole entry): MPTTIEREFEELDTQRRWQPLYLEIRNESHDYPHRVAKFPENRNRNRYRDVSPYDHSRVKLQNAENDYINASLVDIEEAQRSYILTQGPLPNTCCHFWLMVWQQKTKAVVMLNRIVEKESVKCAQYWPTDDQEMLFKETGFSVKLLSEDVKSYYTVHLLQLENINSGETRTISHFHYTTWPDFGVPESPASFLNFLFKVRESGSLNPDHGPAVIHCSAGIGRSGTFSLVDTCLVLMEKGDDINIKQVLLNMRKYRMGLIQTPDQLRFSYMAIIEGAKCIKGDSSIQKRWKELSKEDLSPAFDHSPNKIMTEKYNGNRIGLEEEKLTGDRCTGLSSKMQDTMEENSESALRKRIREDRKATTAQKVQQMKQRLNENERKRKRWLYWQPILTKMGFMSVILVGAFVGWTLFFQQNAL

[3] = target: T2, Tyrosine-protein phosphatase non-receptor type 1 (Homo sapiens, UniProt P18031); assay: Inhibition of recombinant human PTP1B catalytic domain assessed as hydrolysis of pNPP after 2 mins
T2 sequence (P18031 whole entry): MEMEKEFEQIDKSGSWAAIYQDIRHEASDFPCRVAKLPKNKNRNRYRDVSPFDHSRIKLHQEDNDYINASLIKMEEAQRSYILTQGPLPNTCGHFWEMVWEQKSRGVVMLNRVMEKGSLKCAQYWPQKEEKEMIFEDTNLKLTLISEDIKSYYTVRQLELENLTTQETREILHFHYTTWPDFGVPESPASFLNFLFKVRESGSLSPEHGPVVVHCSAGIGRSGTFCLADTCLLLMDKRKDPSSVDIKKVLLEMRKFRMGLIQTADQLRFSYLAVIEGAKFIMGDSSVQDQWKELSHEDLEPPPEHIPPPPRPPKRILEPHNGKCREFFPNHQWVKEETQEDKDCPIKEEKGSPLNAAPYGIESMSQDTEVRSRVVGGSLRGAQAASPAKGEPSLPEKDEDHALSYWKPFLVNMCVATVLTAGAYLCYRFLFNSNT

[4] = target: Tyrosine-protein phosphatase non-receptor type 6 (Homo sapiens, UniProt P29350); assay: Inhibition of human SHP1 as hydrolysis of pNPP after 2 mins
Sequence of Tyrosine-protein phosphatase non-receptor type 6 (P29350 whole entry): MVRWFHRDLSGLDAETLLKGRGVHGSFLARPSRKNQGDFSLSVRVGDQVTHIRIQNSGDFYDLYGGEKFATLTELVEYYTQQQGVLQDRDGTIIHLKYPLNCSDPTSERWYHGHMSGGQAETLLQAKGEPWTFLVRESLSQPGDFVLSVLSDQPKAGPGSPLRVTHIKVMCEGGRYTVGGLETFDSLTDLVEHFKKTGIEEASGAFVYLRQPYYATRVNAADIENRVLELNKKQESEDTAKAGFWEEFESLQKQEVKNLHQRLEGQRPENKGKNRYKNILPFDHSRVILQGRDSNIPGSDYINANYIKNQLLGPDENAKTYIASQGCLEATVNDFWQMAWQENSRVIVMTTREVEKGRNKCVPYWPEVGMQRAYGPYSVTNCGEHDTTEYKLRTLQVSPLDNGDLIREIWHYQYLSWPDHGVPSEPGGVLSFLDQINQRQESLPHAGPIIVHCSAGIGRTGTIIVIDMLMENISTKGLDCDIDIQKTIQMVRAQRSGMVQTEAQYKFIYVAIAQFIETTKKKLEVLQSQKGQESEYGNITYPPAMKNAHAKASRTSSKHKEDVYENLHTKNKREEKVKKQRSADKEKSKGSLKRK

[5] = target: T3, Tyrosine-protein phosphatase non-receptor type 11 (Homo sapiens, UniProt Q06124); assay: Inhibition of human SHP2 as hydrolysis of pNPP after 2 mins
T3 sequence (Q06124 whole entry): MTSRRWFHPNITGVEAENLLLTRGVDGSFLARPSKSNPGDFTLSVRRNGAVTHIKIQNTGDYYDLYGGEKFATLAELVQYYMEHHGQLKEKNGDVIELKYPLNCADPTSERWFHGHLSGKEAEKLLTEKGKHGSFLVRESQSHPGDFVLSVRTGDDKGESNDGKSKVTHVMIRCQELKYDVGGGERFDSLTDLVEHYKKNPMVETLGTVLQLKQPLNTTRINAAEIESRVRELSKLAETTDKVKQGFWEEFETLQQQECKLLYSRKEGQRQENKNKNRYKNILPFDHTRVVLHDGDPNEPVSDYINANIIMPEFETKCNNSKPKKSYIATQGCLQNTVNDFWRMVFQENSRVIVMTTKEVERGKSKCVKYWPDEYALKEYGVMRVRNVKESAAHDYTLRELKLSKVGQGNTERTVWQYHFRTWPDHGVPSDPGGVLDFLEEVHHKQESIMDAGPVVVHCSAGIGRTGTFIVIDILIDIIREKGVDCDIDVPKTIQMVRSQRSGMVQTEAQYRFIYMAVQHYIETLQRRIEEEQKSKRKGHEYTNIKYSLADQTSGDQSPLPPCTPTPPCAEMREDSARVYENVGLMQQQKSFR

Sequence of Receptor-type tyrosine-protein phosphatase F (P10586 whole entry): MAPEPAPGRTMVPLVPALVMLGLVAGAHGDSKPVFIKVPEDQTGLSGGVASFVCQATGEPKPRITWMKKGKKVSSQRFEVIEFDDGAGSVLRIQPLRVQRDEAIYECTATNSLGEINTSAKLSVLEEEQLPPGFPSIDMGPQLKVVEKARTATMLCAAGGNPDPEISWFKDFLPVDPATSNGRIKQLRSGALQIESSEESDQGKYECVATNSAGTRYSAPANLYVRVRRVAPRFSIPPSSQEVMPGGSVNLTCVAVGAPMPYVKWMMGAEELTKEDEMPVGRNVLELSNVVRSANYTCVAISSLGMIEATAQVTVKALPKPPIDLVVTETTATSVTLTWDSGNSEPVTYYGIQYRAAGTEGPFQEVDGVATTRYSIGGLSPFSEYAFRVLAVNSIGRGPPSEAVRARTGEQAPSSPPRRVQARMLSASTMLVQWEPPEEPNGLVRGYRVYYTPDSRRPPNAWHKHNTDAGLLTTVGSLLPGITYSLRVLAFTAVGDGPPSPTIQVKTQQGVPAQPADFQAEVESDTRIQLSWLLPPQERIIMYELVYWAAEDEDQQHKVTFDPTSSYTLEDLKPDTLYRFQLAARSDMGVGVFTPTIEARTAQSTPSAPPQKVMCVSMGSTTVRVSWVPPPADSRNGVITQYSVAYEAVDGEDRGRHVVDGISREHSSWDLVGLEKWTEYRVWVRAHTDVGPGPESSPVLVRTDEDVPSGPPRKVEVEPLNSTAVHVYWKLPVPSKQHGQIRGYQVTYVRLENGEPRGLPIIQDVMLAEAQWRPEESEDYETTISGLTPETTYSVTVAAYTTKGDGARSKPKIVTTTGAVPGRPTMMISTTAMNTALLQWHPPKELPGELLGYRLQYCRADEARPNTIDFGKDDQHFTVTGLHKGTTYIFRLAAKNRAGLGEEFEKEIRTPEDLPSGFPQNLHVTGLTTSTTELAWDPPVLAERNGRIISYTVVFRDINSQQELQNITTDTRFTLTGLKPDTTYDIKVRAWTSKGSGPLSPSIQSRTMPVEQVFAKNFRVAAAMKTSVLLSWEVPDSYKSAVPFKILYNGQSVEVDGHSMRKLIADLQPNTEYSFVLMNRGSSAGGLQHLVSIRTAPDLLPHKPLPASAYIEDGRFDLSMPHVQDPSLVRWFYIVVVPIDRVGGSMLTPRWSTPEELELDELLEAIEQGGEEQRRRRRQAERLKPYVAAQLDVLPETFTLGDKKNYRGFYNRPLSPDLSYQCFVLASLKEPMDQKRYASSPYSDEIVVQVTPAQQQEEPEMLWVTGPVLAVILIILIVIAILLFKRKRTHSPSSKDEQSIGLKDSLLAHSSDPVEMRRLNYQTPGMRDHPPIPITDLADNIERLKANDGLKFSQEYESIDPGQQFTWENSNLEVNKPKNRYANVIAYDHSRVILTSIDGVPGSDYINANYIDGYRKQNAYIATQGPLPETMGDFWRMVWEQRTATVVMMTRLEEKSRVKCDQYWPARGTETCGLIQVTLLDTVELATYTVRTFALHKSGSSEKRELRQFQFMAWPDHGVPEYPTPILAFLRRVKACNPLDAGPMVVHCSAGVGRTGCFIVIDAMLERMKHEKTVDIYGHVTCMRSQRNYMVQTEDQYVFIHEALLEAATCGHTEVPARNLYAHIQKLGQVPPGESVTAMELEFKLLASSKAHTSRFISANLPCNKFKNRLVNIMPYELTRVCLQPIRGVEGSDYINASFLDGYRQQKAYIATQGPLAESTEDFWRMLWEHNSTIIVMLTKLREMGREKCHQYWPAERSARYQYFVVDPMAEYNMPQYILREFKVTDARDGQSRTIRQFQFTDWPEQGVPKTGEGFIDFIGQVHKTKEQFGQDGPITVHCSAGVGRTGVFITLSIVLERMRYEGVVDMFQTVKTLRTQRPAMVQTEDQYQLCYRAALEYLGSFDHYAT

| SMILES | IC50 [1] [µM] | IC50 [2] [µM] | IC50 [3] [µM] | IC50 [4] [µM] | IC50 [5] [µM] |
| --- | --- | --- | --- | --- | --- |
| Nc1ccc(-c2ccc(-c3noc(Cc4c[nH]c5ccccc45)n3)s2)cc1 | > 120 | > 120 | > 120 | > 120 | > 120 |
| Cc1ccccc1-c1ccc(-c2noc(Cc3c[nH]c4ccccc34)n2)s1 | > 120 | > 120 | 16.8 | > 120 | > 120 |
| CCCCc1ccc(-c2cccc(-c3noc(Cc4c[nH]c5ccccc45)n3)n2)cc1 | > 120 | > 120 | 9.66 | > 120 | > 120 |
| CCc1ccc(-c2ccc(-c3noc(Cc4c[nH]c5ccccc45)n3)s2)cc1 | > 120 | > 120 | 13.1 | > 120 | > 120 |
| Cc1ccccc1-c1cccc(-c2noc(Cc3c[nH]c4ccccc34)n2)c1 | > 120 | > 120 | 24.4 | > 120 | > 120 |
| Cc1cccc(-c2ccc(-c3noc(Cc4c[nH]c5ccccc45)n3)s2)c1 | > 120 | > 120 | > 120 | > 120 | > 120 |
| Brc1cccc(-c2noc(Cc3c[nH]c4ccccc34)n2)n1 | > 120 | > 120 | > 120 | > 120 | > 120 |
| Cc1cccc(-c2cccc(-c3noc(Cc4c[nH]c5ccccc45)n3)n2)c1 | > 120 | > 120 | 21.7 | > 120 | > 120 |
| CCCc1ccc(-c2cccc(-c3noc(Cc4c[nH]c5ccccc45)n3)c2)cc1 | > 120 | > 120 | > 120 | > 120 | > 120 |
| Cc1ccccc1-c1cccc(-c2noc(Cc3c[nH]c4ccccc34)n2)n1 | > 120 | > 120 | 26.1 | > 120 | > 120 |
| COC(=O)CCCOc1ccc(-c2cccc(-c3noc(Cc4c[nH]c5ccccc45)n3)c2)cc1 | > 120 | > 120 | > 120 | > 120 | > 120 |
| CC1(C)CC[C@]2(C(=O)O)CC[C@]3(C)C(=CC[C@@H]4[C@@]5(C)CC[C@H](O)C(C)(C)[C@@H]5CC[C@]43C)[C@@H]2C1 [OLEANOLIC_ACID] | > 120 | – | – | – | > 120 |

The next lines start with the values.

| IC50 [1] [µM] | IC50 [2] [µM] | IC50 [3] [µM] | IC50 [4] [µM] | IC50 [5] [µM] | SMILES |
| --- | --- | --- | --- | --- | --- |
| > 120 | > 120 | > 120 | > 120 | > 120 | Nc1ccc(-c2cccc(-c3noc(Cc4c[nH]c5ccccc45)n3)c2)cc1 |
| > 120 | > 120 | 14.1 | > 120 | > 120 | Brc1ccc(-c2noc(Cc3c[nH]c4ccccc34)n2)s1 |
| > 120 | > 120 | 8.96 | > 120 | > 120 | CCCCc1ccc(-c2ccc(-c3noc(Cc4c[nH]c5ccccc45)n3)s2)cc1 |
| > 120 | > 120 | 19.7 | > 120 | > 120 | Brc1cccc(-c2noc(Cc3c[nH]c4ccccc34)n2)c1 |
| > 120 | > 120 | 12.5 | > 120 | > 120 | CCCc1ccc(-c2ccc(-c3noc(Cc4c[nH]c5ccccc45)n3)s2)cc1 |
| > 120 | > 120 | 15.9 | > 120 | > 120 | CCOc1ccc(-c2cccc(-c3noc(Cc4c[nH]c5ccccc45)n3)c2)cc1 |
| > 120 | > 120 | > 120 | > 120 | > 120 | COC(=O)CCCOc1ccc(-c2ccc(-c3noc(Cc4c[nH]c5ccccc45)n3)s2)cc1 |
| > 120 | > 120 | 18.4 | > 120 | > 120 | CCCOc1ccc(-c2cccc(-c3noc(Cc4c[nH]c5ccccc45)n3)c2)cc1 |
| > 120 | > 120 | 31.5 | > 120 | > 120 | CCOc1ccc(-c2cccc(-c3noc(Cc4c[nH]c5ccccc45)n3)n2)cc1 |
| > 120 | > 120 | 15.8 | > 120 | > 120 | Cc1cccc(-c2cccc(-c3noc(Cc4c[nH]c5ccccc45)n3)c2)c1 |
| > 120 | > 120 | 9.66 | > 120 | > 120 | CCCOc1ccc(-c2cccc(-c3noc(Cc4c[nH]c5ccccc45)n3)n2)cc1 |
| > 120 | > 120 | 17.3 | > 120 | > 120 | CCOc1ccc(-c2ccc(-c3noc(Cc4c[nH]c5ccccc45)n3)s2)cc1 |
| > 120 | > 120 | 21.9 | > 120 | > 120 | Oc1ccc(-c2cccc(-c3noc(Cc4c[nH]c5ccccc45)n3)c2)cc1 |
| > 120 | > 120 | 13.7 | > 120 | > 120 | CCCOc1ccc(-c2ccc(-c3noc(Cc4c[nH]c5ccccc45)n3)s2)cc1 |
| > 120 | > 120 | 8.8 | > 120 | > 120 | CCCCc1ccc(-c2cccc(-c3noc(Cc4c[nH]c5ccccc45)n3)c2)cc1 |
